# System: primary rat mixed cortical cells
# Assay: In vitro myelination assay (MBP positive myelin strands, fold myelin pixels above background)
# Type: cell-based
# Conditions: Rattus norvegicus, relative to baseline of no added compound, read-out: Fold myelin pixels above background; for fold induction at 1 µM: 1.0 μM compound; for fold induction at 10 µM: 10.0 μM compound
# Outline: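 Myelination read as total MBP-immunopositive strand pixels per well, imaged at 10× after fixation on day 14 and expressed relative to untreated wells, at 1.0 and 10.0 μM. Cells: dissociated postnatal day 1 rat cortex, cultured two weeks with compound, re-dosed at days 6 and 10.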
Compound,fold induction at 1 µM,fold induction at 10 µM
"Fc1ccc(-n2cnc(Nc3cc(C4CC4)nc(N4CC[C@@H](F)C4)c3)n2)cc1F [Compound 498, 2-cyclopropyl-N-[1-(3,4-difluorophenyl)-1,2,4-triazol-3-yl]-6-[(3R)-3-fluoropyrrolidin-1-yl]pyridin-4-amine]",100 to 1000,100 to 1000
"Cc1cc(Nc2ncn(-c3cccc(C#N)c3)n2)cc(N2CCN(C)CC2)c1 [Compound 499, 3-[3-[3-methyl-5-(4-methylpiperazin-1-yl)anilino]-1,2,4-triazol-1-yl]benzonitrile]",100 to 1000,10 to 100
"CC(=O)N(C)C1CCN(c2cc(C)cc(Nc3ncn(-c4cc(F)cc(F)c4)n3)c2)C1 (centres unmarked) [Compound 500, N-[1-[3-[[1-(3,5-difluorophenyl)-1,2,4-triazol-3-yl]amino]-5-methyl-phenyl]pyrrolidin-3-yl]-N-methyl-acetamide]",100 to 1000,1 to 10
"Cc1cc(Nc2ncn(-c3ccc(F)c(F)c3)n2)nc(N2CC(N3CCOCC3)C2)c1 [Compound 501, N-[1-(3,4-difluorophenyl)-1,2,4-triazol-3-yl]-4-methyl-6-(3-morpholinoazetidin-1-yl)pyridin-2-amine]",1 to 10,≤ 1
"Cc1cc(Nc2ncn(-c3ccccc3)n2)nc(N2CC(N3CCOCC3)C2)c1 [Compound 502, 4-methyl-6-(3-morpholinoazetidin-1-yl)-N-(1-phenyl-1,2,4-triazol-3-yl)pyridin-2-amine]",1 to 10,≤ 1
"Cc1cc(Nc2ncn(-c3ccccn3)n2)nc(N2CC(N3CCOCC3)C2)c1 [Compound 503, 4-methyl-6-(3-morpholinoazetidin-1-yl)-N-[1-(2-pyridyl)-1,2,4-triazol-3-yl]pyridin-2-amine]",1 to 10,≤ 1
"Cc1cc(Nc2ncn(-c3ccnc(F)c3)n2)nc(N2CC(N3CCOCC3)C2)c1 [Compound 504, N-[1-(2-fluoro-4-pyridyl)-1,2,4-triazol-3-yl]-4-methyl-6-(3-morpholinoazetidin-1-yl)pyridin-2-amine]",10 to 100,10 to 100
"CC(=O)OCC(C)(COC(C)=O)N1CCN(c2cc(C)cc(Nc3ncn(-c4cc(F)cc(F)c4)n3)c2)CC1 [Compound 505, [3-acetoxy-2-[4-[3-[[1-(3,5-difluorophenyl)-1,2,4-triazol-3-yl]amino]-5-methyl-phenyl]piperazin-1-yl]-2-methyl-propyl] acetate]",10 to 100,≤ 1
"Cc1cc(Nc2ncn(-c3cc(F)cc(F)c3)n2)cc(N2CC(C3COC3)C2)c1 [Compound 506, 1-(3,5-difluorophenyl)-N-[3-methyl-5-[3-(oxetan-3-yl)azetidin-1-yl]phenyl]-1,2,4-triazol-3-amine]",100 to 1000,1 to 10
"FC(F)(F)c1cc(Nc2ncn(-c3cnccn3)n2)cc(N2CCC(C3COC3)CC2)c1 [Compound 507, N-[3-[4-(oxetan-3-yl)-1-piperidyl]-5-(trifluoromethyl)phenyl]-1-pyrazin-2-yl-1,2,4-triazol-3-amine]",10 to 100,100 to 1000
"Cc1cc(Nc2ncn(-c3cc(F)cc(F)c3)n2)cc(N2CC3(CCO3)C2)c1 [Compound 508, 1-(3,5-difluorophenyl)-N-[3-methyl-5-(3-oxa-6-azaspiro[3.3]heptan-6-yl)phenyl]-1,2,4-triazol-3-amine]",100 to 1000,10 to 100
"Cc1cc(Nc2ncn(-c3cc(F)cc(F)c3)n2)cc(N2CCN(C(C)(C)C(=O)O)CC2)c1 [Compound 509, 2-[4-[3-[[1-(3,5-difluorophenyl)-1,2,4-triazol-3-yl]amino]-5-methyl-phenyl]piperazin-1-yl]-2-methyl-propanoic acid]",100 to 1000,100 to 1000
"Cc1cc(Nc2ncn(-c3cc(F)cc(F)c3)n2)cc(N2CC(N3CCCC3)C2)c1 [Compound 510, 1-(3,5-difluorophenyl)-N-[3-methyl-5-(3-pyrrolidin-1-ylazetidin-1-yl)phenyl]-1,2,4-triazol-3-amine]",1 to 10,10 to 100
"CC(C)c1cc(Nc2ncn(-c3ccncn3)n2)cc(N2CCN(C3COC3)CC2)c1 [Compound 511, N-[3-isopropyl-5-[4-(oxetan-3-yl)piperazin-1-yl]phenyl]-1-pyrimidin-4-yl-1,2,4-triazol-3-amine]",100 to 1000,100 to 1000
"FC(F)(F)c1cc(Nc2ncn(-c3cnccn3)n2)cc(N2CC3CC(C2)O3)c1 [Compound 513, N-[3-(6-oxa-3-azabicyclo[3.1.1]heptan-3-yl)-5-(trifluoromethyl)phenyl]-1-pyrazin-2-yl-1,2,4-triazol-3-amine]",100 to 1000,100 to 1000
"FC(F)(F)c1cc(Nc2ncn(-c3cnccn3)n2)cc(N2CCN(C3COC3)CC2)c1 [Compound 514, N-[3-[4-(oxetan-3-yl)piperazin-1-yl]-5-(trifluoromethyl)phenyl]-1-pyrazin-2-yl-1,2,4-triazol-3-amine]",10 to 100,100 to 1000

Compound,fold induction at 1 µM,fold induction at 10 µM
"Cc1cc(Nc2ncn(-c3cc(F)cc(F)c3)n2)cc(C2(F)CCN(C3COC3)CC2)c1 [Compound 515, 1-(3,5-difluorophenyl)-N-[3-[4-fluoro-1-(oxetan-3-yl)-4-piperidyl]-5-methyl-phenyl]-1,2,4-triazol-3-amine]",≤ 1,1 to 10
"Cc1cc(Nc2ncn(-c3cc(F)cc(F)c3)n2)cc(C2(O)CCN(C3COC3)CC2)c1 [Compound 516, 4-[3-[[1-(3,5-difluorophenyl)-1,2,4-triazol-3-yl]amino]-5-methyl-phenyl]-1-(oxetan-3-yl)piperidin-4-ol]",10 to 100,10 to 100
"Cc1cc(Nc2ncn(-c3cc(F)cc(F)c3)n2)cc(N2CCOC2=O)c1 [Compound 517, 3-[3-[[1-(3,5-difluorophenyl)-1,2,4-triazol-3-yl]amino]-5-methyl-phenyl]oxazolidin-2-one]",10 to 100,10 to 100
"Cc1cc(Nc2ncn(-c3cc(F)cc(F)c3)n2)cc(N2CC(O)(C(C)C)C2)c1 [Compound 518, 1-[3-[[1-(3,5-difluorophenyl)-1,2,4-triazol-3-yl]amino]-5-methyl-phenyl]-3-isopropyl-azetidin-3-ol]",10 to 100,10 to 100
"Cc1cc(Nc2ncn(-c3cc(F)cc(F)c3)n2)cc(N2CC(C(C)(C)O)C2)c1 [Compound 519, 2-[1-[3-[[1-(3,5-difluorophenyl)-1,2,4-triazol-3-yl]amino]-5-methyl-phenyl]azetidin-3-yl]propan-2-ol]",100 to 1000,≤ 1
"COC1CC(Nc2cc(C)cc(Nc3ncn(-c4cc(F)cc(F)c4)n3)c2)C1 (centres unmarked) [Compound 520, N3-[1-(3,5-difluorophenyl)-1,2,4-triazol-3-yl]-N1-(3-methoxycyclobutyl)-5-methyl-benzene-1,3-diamine]",100 to 1000,≤ 1
"Cc1cc(Nc2ncn(-c3cnccn3)n2)cc(N2CCC(C3COC3)CC2)c1 [Compound 521, N-[3-methyl-5-[4-(oxetan-3-yl)-1-piperidyl]phenyl]-1-pyrazin-2-yl-1,2,4-triazol-3-amine]",100 to 1000,100 to 1000
"Cc1cc(Nc2ncn(-c3cccc(F)c3)n2)cc(N2CCC(C3COC3)CC2)c1 [Compound 522, 1-(3-fluorophenyl)-N-[3-methyl-5-[4-(oxetan-3-yl)-1-piperidyl]phenyl]-1,2,4-triazol-3-amine]",100 to 1000,100 to 1000
"CC(C)c1cc(Nc2ncn(-c3cccc(F)c3)n2)cc(N2CCN(C3COC3)CC2)c1 [Compound 523, 1-(3-fluorophenyl)-N-[3-isopropyl-5-[4-(oxetan-3-yl)piperazin-1-yl]phenyl]-1,2,4-triazol-3-amine]",100 to 1000,≤ 1
"Fc1cccc(-n2cnc(Nc3cc(C(F)F)cc(N4CCN(C5COC5)CC4)n3)n2)c1 [Compound 525, 4-(difluoromethyl)-N-[1-(3-fluorophenyl)-1,2,4-triazol-3-yl]-6-[4-(oxetan-3-yl)piperazin-1-yl]pyridin-2-amine]",100 to 1000,10 to 100
"FC(F)c1cc(Nc2ncn(-c3ccccc3)n2)nc(N2CCN(C3COC3)CC2)c1 [Compound 526, 4-(difluoromethyl)-6-[4-(oxetan-3-yl)piperazin-1-yl]-N-(1-phenyl-1,2,4-triazol-3-yl)pyridin-2-amine]",100 to 1000,10 to 100
"Cc1cc(Nc2ncn(-c3cc(F)cc(F)c3)n2)cc(N2CC3CC(C2)O3)c1 [Compound 527, 1-(3,5-difluorophenyl)-N-[3-methyl-5-(6-oxa-3-azabicyclo[3.1.1]heptan-3-yl)phenyl]-1,2,4-triazol-3-amine]",100 to 1000,100 to 1000
"Cc1cc(Nc2ncn(-c3cc(F)cc(F)c3)n2)cc(N2CCC3OCCC3C2)c1 (centres unmarked) [Compound 528, N-[3-(3,3a,4,6,7,7a-hexahydro-2H-furo[3,2-c]pyridin-5-yl)-5-methyl-phenyl]-1-(3,5-difluorophenyl)-1,2,4-triazol-3-amine]",100 to 1000,100 to 1000
"Cc1cc(Nc2ncn(-c3cc(F)cc(F)c3)n2)nc(N2CCNCC2)c1 [Compound 529, N-[1-(3,5-difluorophenyl)-1,2,4-triazol-3-yl]-4-methyl-6-piperazin-1-yl-pyridin-2-amine]",1 to 10,≤ 1
"Cc1cc(Nc2ncn(-c3cc(F)cc(F)c3)n2)cc(N2CCN([C@H]3CCOC3)CC2)c1 [Compound 530, 1-(3,5-difluorophenyl)-N-[3-methyl-5-[4-[(3S)-tetrahydrofuran-3-yl]piperazin-1-yl]phenyl]-1,2,4-triazol-3-amine]",100 to 1000,100 to 1000
